According to patent US8951566B2, “Process for preparing products comprising stabilised actives and compositions comprising same” (priority 2011, dated 2015):

Assay: Blood glucose of a diabetic patient switched from Metformin to sublingual Exenatide tablet
Assay type: in vivo, human
Settings: one diabetic patient; Exenatide 20 μg sublingual tablet once a day; FIGS. 1 and 2
Method: A diabetic patient who was undergoing treatment with Metformin switched to once a day treatment with a slow release 20 μg Exenatide sublingual tablet prepared in accordance with Example 2. The fasting glucose and plasma glucose levels were measured and are depicted in FIGS. 1 and 2.

Question: With `CN(C)C(=N)N=C(N)N` [Metformin] as the compound, how does the “blood glucose level / profile (fasting and 2 hours after a meal)” value read?
Answer: The value was “erratic and difficult to control”.
